Assay results taken from the NIST ThermoML archive (doi:10.1021/je025610o).
Numbers after ± are expanded uncertainties.

Tests used:
[1] = xn = mol fraction of the nth substance listed; settings: 100 kPa, Liquid; for thermal conductivity: Hot wire method
[2] = 100 kPa, Liquid, Capillary tube (Ostwald / Ubbelohde) method

## OCCOCCO [diethylene glycol] + O
[1]; 293.45 K, x1 = 0.5
  mass density: 1111 ± 2 kg/m3
  viscosity: 22 ± 0.6 mPa·s
[1]; 294.05 K, x1 = 0.75
  mass density: 1115 ± 2 kg/m3
  viscosity: 30.4 ± 0.8 mPa·s
[1]; 294.25 K, x1 = 0.25
  mass density: 1095 ± 2 kg/m3
  viscosity: 9.79 ± 0.26 mPa·s
[1]; 294.4 K, x1 = 0.25
  thermal conductivity: 0.291 ± 0.006 W/m/K
[1]; 295.9 K, x1 = 0.5
  thermal conductivity: 0.235 ± 0.005 W/m/K
[1]; 296.4 K, x1 = 0.75
  thermal conductivity: 0.209 ± 0.004 W/m/K
[1]; 312.95 K, x1 = 0.5
  mass density: 1097 ± 2 kg/m3
  viscosity: 9.64 ± 0.26 mPa·s
[1]; 313.05 K, x1 = 0.25
  mass density: 1081 ± 2 kg/m3
  viscosity: 4.88 ± 0.14 mPa·s
[1]; 313.05 K, x1 = 0.75
  mass density: 1101 ± 2 kg/m3
  viscosity: 13.3 ± 0.4 mPa·s
[1]; 322.1 K, x1 = 0.5
  thermal conductivity: 0.244 ± 0.005 W/m/K
[1]; 323.4 K, x1 = 0.25
  thermal conductivity: 0.31 ± 0.006 W/m/K
[1]; 323.8 K, x1 = 0.75
  thermal conductivity: 0.213 ± 0.004 W/m/K
[1]; 332.95 K, x1 = 0.5
  mass density: 1082 ± 2 kg/m3
  viscosity: 5.03 ± 0.14 mPa·s
[1]; 333.05 K, x1 = 0.25
  mass density: 1066 ± 2 kg/m3
  viscosity: 2.76 ± 0.08 mPa·s
[1]; 333.05 K, x1 = 0.75
  mass density: 1087 ± 2 kg/m3
  viscosity: 6.75 ± 0.19 mPa·s
[1]; 347.4 K, x1 = 0.25
  thermal conductivity: 0.315 ± 0.006 W/m/K
[1]; 347.8 K, x1 = 0.5
  thermal conductivity: 0.249 ± 0.005 W/m/K
[1]; 349.6 K, x1 = 0.75
  thermal conductivity: 0.217 ± 0.004 W/m/K
[1]; 352.95 K, x1 = 0.5
  mass density: 1066 ± 2 kg/m3
  viscosity: 3.01 ± 0.09 mPa·s
[1]; 353.05 K, x1 = 0.75
  mass density: 1071 ± 2 kg/m3
  viscosity: 3.9 ± 0.11 mPa·s
[1]; 353.15 K, x1 = 0.25
  mass density: 1051 ± 2 kg/m3
  viscosity: 1.76 ± 0.05 mPa·s
[1]; 371.9 K, x1 = 0.5
  thermal conductivity: 0.258 ± 0.005 W/m/K
[1]; 373 K, x1 = 0.25
  thermal conductivity: 0.322 ± 0.007 W/m/K
[1]; 373.2 K, x1 = 0.75
  thermal conductivity: 0.219 ± 0.004 W/m/K
[1]; 380.05 K, x1 = 0.5
  mass density: 1043 ± 2 kg/m3
[1]; 381.45 K, x1 = 0.25
  mass density: 1027 ± 2 kg/m3
[1]; 382.55 K, x1 = 0.5
  viscosity: 1.66 ± 0.05 mPa·s
[1]; 382.55 K, x1 = 0.75
  mass density: 1048 ± 2 kg/m3
[1]; 384.95 K, x1 = 0.25
  viscosity: 1.03 ± 0.03 mPa·s
[1]; 385.05 K, x1 = 0.75
  viscosity: 2 ± 0.06 mPa·s
[1]; 390.25 K, x1 = 0.5
  mass density: 1035 ± 2 kg/m3
[1]; 390.95 K, x1 = 0.75
  mass density: 1042 ± 2 kg/m3
[1]; 392.75 K, x1 = 0.25
  mass density: 1017 ± 2 kg/m3
[1]; 394.25 K, x1 = 0.5
  viscosity: 1.37 ± 0.04 mPa·s
[1]; 394.95 K, x1 = 0.75
  viscosity: 1.72 ± 0.05 mPa·s
[1]; 395.6 K, x1 = 0.5
  thermal conductivity: 0.257 ± 0.005 W/m/K
[1]; 396 K, x1 = 0.25
  thermal conductivity: 0.325 ± 0.007 W/m/K
[1]; 396.75 K, x1 = 0.25
  viscosity: 0.912 ± 0.028 mPa·s
[1]; 396.9 K, x1 = 0.75
  thermal conductivity: 0.217 ± 0.004 W/m/K
[1]; 405.35 K, x1 = 0.5
  mass density: 1023 ± 2 kg/m3
[1]; 406.95 K, x1 = 0.75
  mass density: 1029 ± 2 kg/m3
[1]; 409.25 K, x1 = 0.25
  mass density: 1004 ± 2 kg/m3
[1]; 409.35 K, x1 = 0.5
  viscosity: 1.12 ± 0.03 mPa·s
[1]; 410.95 K, x1 = 0.75
  viscosity: 1.35 ± 0.04 mPa·s
[1]; 413.25 K, x1 = 0.25
  viscosity: 0.743 ± 0.023 mPa·s
[1]; 421.5 K, x1 = 0.25
  thermal conductivity: 0.33 ± 0.007 W/m/K
[1]; 421.6 K, x1 = 0.75
  thermal conductivity: 0.222 ± 0.005 W/m/K
[1]; 422 K, x1 = 0.5
  thermal conductivity: 0.256 ± 0.005 W/m/K
[1]; 424.25 K, x1 = 0.5
  mass density: 1006 ± 2 kg/m3
[1]; 424.65 K, x1 = 0.75
  mass density: 1014 ± 2 kg/m3
[1]; 426.35 K, x1 = 0.25
  mass density: 987.6 ± 2.2 kg/m3
[1]; 428.25 K, x1 = 0.5
  viscosity: 0.865 ± 0.026 mPa·s
[1]; 428.65 K, x1 = 0.75
  viscosity: 1.05 ± 0.03 mPa·s
[1]; 430.35 K, x1 = 0.25
  viscosity: 0.61 ± 0.019 mPa·s
[1]; 441.65 K, x1 = 0.25
  mass density: 973.3 ± 2.2 kg/m3
[1]; 443.05 K, x1 = 0.5
  mass density: 988.2 ± 2.3 kg/m3
[1]; 443.65 K, x1 = 0.75
  mass density: 996.3 ± 2.3 kg/m3
[1]; 445.65 K, x1 = 0.25
  viscosity: 0.521 ± 0.017 mPa·s
[1]; 446.8 K, x1 = 0.75
  thermal conductivity: 0.213 ± 0.004 W/m/K
[1]; 447 K, x1 = 0.5
  thermal conductivity: 0.253 ± 0.005 W/m/K
[1]; 447.05 K, x1 = 0.5
  viscosity: 0.707 ± 0.022 mPa·s
[1]; 447.5 K, x1 = 0.25
  thermal conductivity: 0.328 ± 0.007 W/m/K
[1]; 447.65 K, x1 = 0.75
  viscosity: 0.838 ± 0.026 mPa·s

## OCCOCCOCCO [triethylene glycol]
[2]; 299.65 K
  viscosity: 35.1 ± 0.7 mPa·s
[2]; 313.05 K
  viscosity: 19.5 ± 0.4 mPa·s
[2]; 333.1 K
  viscosity: 9.66 ± 0.21 mPa·s
[2]; 353.05 K
  viscosity: 5.55 ± 0.12 mPa·s
[2]; 373.5 K
  viscosity: 3.41 ± 0.07 mPa·s
[2]; 393.3 K
  viscosity: 2.36 ± 0.05 mPa·s
[2]; 413.25 K
  viscosity: 1.71 ± 0.04 mPa·s
[2]; 428.1 K
  viscosity: 1.39 ± 0.03 mPa·s

## OCCOCCOCCO [triethylene glycol] + O
[1]; 293.85 K, x1 = 0.25
  mass density: 1108 ± 2 kg/m3
  viscosity: 19.2 ± 0.5 mPa·s
[1]; 294.05 K, x1 = 0.5
  mass density: 1120 ± 2 kg/m3
  viscosity: 36 ± 0.9 mPa·s
[1]; 294.15 K, x1 = 0.75
  mass density: 1122 ± 2 kg/m3
  viscosity: 43.2 ± 1.1 mPa·s
[1]; 295 K, x1 = 0.25
  thermal conductivity: 0.258 ± 0.005 W/m/K
[1]; 295.5 K, x1 = 0.5
  thermal conductivity: 0.21 ± 0.004 W/m/K
[1]; 295.5 K, x1 = 0.75
  thermal conductivity: 0.195 ± 0.004 W/m/K
[1]; 313.05 K, x1 = 0.25
  mass density: 1093 ± 2 kg/m3
  viscosity: 8.6 ± 0.2 mPa·s
[1]; 313.05 K, x1 = 0.5
  mass density: 1105 ± 2 kg/m3
  viscosity: 15.2 ± 0.4 mPa·s
[1]; 313.05 K, x1 = 0.75
  mass density: 1108 ± 2 kg/m3
  viscosity: 18.3 ± 0.5 mPa·s
[1]; 323.8 K, x1 = 0.25
  thermal conductivity: 0.268 ± 0.005 W/m/K
[1]; 324.6 K, x1 = 0.5
  thermal conductivity: 0.216 ± 0.004 W/m/K
[1]; 327.1 K, x1 = 0.75
  thermal conductivity: 0.197 ± 0.004 W/m/K
[1]; 333.05 K, x1 = 0.25
  mass density: 1078 ± 2 kg/m3
  viscosity: 4.52 ± 0.13 mPa·s
[1]; 333.05 K, x1 = 0.5
  mass density: 1089 ± 2 kg/m3
  viscosity: 7.52 ± 0.2 mPa·s
[1]; 333.05 K, x1 = 0.75
  mass density: 1092 ± 2 kg/m3
  viscosity: 9.04 ± 0.24 mPa·s
[1]; 349.1 K, x1 = 0.25
  thermal conductivity: 0.275 ± 0.006 W/m/K
[1]; 349.5 K, x1 = 0.5
  thermal conductivity: 0.219 ± 0.004 W/m/K
[1]; 349.8 K, x1 = 0.75
  thermal conductivity: 0.201 ± 0.004 W/m/K
[1]; 353.05 K, x1 = 0.25
  mass density: 1061 ± 2 kg/m3
  viscosity: 2.7 ± 0.08 mPa·s
[1]; 353.05 K, x1 = 0.5
  mass density: 1073 ± 2 kg/m3
  viscosity: 4.32 ± 0.12 mPa·s
[1]; 353.05 K, x1 = 0.75
  mass density: 1076 ± 2 kg/m3
  viscosity: 5.19 ± 0.15 mPa·s
[1]; 372.7 K, x1 = 0.75
  thermal conductivity: 0.202 ± 0.004 W/m/K
[1]; 373.6 K, x1 = 0.5
  thermal conductivity: 0.22 ± 0.005 W/m/K
[1]; 373.8 K, x1 = 0.25
  thermal conductivity: 0.28 ± 0.006 W/m/K
[1]; 379.65 K, x1 = 0.25
  mass density: 1039 ± 2 kg/m3
[1]; 382.15 K, x1 = 0.25
  viscosity: 1.5 ± 0.04 mPa·s
[1]; 384.25 K, x1 = 0.5
  mass density: 1046 ± 2 kg/m3
[1]; 384.95 K, x1 = 0.75
  mass density: 1049 ± 2 kg/m3
[1]; 386.75 K, x1 = 0.5
  viscosity: 2.09 ± 0.06 mPa·s
[1]; 387.45 K, x1 = 0.75
  viscosity: 2.41 ± 0.07 mPa·s
[1]; 389.35 K, x1 = 0.25
  mass density: 1030 ± 2 kg/m3
[1]; 391.35 K, x1 = 0.5
  mass density: 1041 ± 2 kg/m3
[1]; 392.55 K, x1 = 0.75
  mass density: 1044 ± 2 kg/m3
[1]; 393.35 K, x1 = 0.25
  viscosity: 1.27 ± 0.04 mPa·s
[1]; 395.35 K, x1 = 0.5
  viscosity: 1.84 ± 0.05 mPa·s
[1]; 396 K, x1 = 0.5
  thermal conductivity: 0.221 ± 0.005 W/m/K
[1]; 396.4 K, x1 = 0.25
  thermal conductivity: 0.285 ± 0.006 W/m/K
[1]; 396.55 K, x1 = 0.75
  viscosity: 2.11 ± 0.06 mPa·s
[1]; 397.6 K, x1 = 0.75
  thermal conductivity: 0.2 ± 0.004 W/m/K
[1]; 405.75 K, x1 = 0.25
  mass density: 1016 ± 2 kg/m3
[1]; 407.45 K, x1 = 0.75
  mass density: 1032 ± 2 kg/m3
[1]; 407.85 K, x1 = 0.5
  mass density: 1028 ± 2 kg/m3
[1]; 409.75 K, x1 = 0.25
  viscosity: 1 ± 0.03 mPa·s
[1]; 411.45 K, x1 = 0.75
  viscosity: 1.68 ± 0.05 mPa·s
[1]; 411.85 K, x1 = 0.5
  viscosity: 1.43 ± 0.04 mPa·s
[1]; 421.3 K, x1 = 0.25
  thermal conductivity: 0.292 ± 0.006 W/m/K
[1]; 421.9 K, x1 = 0.5
  thermal conductivity: 0.221 ± 0.005 W/m/K
[1]; 422.5 K, x1 = 0.75
  thermal conductivity: 0.198 ± 0.004 W/m/K
[1]; 423.35 K, x1 = 0.25
  mass density: 999.2 ± 2.2 kg/m3
[1]; 425.35 K, x1 = 0.75
  mass density: 1016 ± 2 kg/m3
[1]; 425.95 K, x1 = 0.5
  mass density: 1011 ± 2 kg/m3
[1]; 427.35 K, x1 = 0.25
  viscosity: 0.813 ± 0.025 mPa·s
[1]; 429.35 K, x1 = 0.75
  viscosity: 1.3 ± 0.04 mPa·s
[1]; 429.95 K, x1 = 0.5
  viscosity: 1.11 ± 0.03 mPa·s
[1]; 442.45 K, x1 = 0.25
  mass density: 980 ± 2 kg/m3
[1]; 443.45 K, x1 = 0.5
  mass density: 995 ± 2 kg/m3
[1]; 444.55 K, x1 = 0.75
  mass density: 999.5 ± 2.3 kg/m3
[1]; 445 K, x1 = 0.25
  thermal conductivity: 0.282 ± 0.006 W/m/K
[1]; 446.45 K, x1 = 0.25
  viscosity: 0.662 ± 0.021 mPa·s
[1]; 446.5 K, x1 = 0.75
  thermal conductivity: 0.195 ± 0.004 W/m/K
[1]; 447.45 K, x1 = 0.5
  viscosity: 0.903 ± 0.028 mPa·s
[1]; 448.3 K, x1 = 0.5
  thermal conductivity: 0.216 ± 0.004 W/m/K
[1]; 448.55 K, x1 = 0.75
  viscosity: 1.03 ± 0.03 mPa·s
